Reference: US20040024024A1, “Aromatic sulfone hydroxamates and their use as protease inhibitors” (priority 2001, published 2004)
pIC50: −log10 of the molar value.

Assays:
Experiment in all cases: In vitro MMP inhibition, IC50 determination (fluorogenic substrate I)
Format in all cases: biochemical
[1] = biological target: T1, Human recombinant MMP-2 (Homo sapiens, UniProt P08253)
T1 construct: made in house; host or cells: MMP-2-transfected p2AHT2 cells
T1 sequence (P08253 110-660): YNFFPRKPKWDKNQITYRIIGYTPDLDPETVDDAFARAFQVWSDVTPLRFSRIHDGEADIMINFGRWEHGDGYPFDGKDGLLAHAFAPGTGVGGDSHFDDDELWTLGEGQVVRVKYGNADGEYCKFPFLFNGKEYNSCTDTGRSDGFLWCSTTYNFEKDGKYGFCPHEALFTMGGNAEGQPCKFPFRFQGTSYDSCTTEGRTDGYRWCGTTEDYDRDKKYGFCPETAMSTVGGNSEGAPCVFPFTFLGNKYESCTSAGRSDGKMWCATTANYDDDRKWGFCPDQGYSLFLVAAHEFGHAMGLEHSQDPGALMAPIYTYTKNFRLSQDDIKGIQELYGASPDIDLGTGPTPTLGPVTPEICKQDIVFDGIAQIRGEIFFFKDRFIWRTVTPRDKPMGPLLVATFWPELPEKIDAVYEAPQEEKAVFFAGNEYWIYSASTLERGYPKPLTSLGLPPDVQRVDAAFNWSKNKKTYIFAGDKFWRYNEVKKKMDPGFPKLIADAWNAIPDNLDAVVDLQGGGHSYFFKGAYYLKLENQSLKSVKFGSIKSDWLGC
In short: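 APMA- or trypsin-activated recombinant MMP-2 was incubated at room temperature with serial inhibitor dilutions in Tris buffer pH 7.5 (100 mM NaCl, 10 mM CaCl2, 0.05% Brij), with DMSO from 1% stocks, and 4 μM substrate I. Cleavage was read by fluorescence at 328/415 nm; IC50 was taken from the loss of fluorescence versus inhibitor concentration.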

[2] = biological target: T2, Human recombinant MMP-13 (Homo sapiens, UniProt P45452)
T2 construct: made in house; host or cells: baculovirus / insect cells
In short: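 Fluorescence at 415 nm (excitation 328 nm) reports Gly-Leu cleavage of 4 μM quenched methoxycoumarin peptide substrate I. Human recombinant MMP-13, activated by trypsin or APMA, was incubated at room temperature with varied inhibitor concentrations in pH 7.5 Tris/NaCl/CaCl2 buffer; IC50 derived from reduced fluorescence.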

[3] = biological target: T3, Human recombinant MMP-14 (Homo sapiens, UniProt P50281)
T3 construct: The catalytic domain enzyme was expressed in E. coli inclusion bodies, solubilized in urea; made in house
In short: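 Catalytic-domain MMP-14, expressed in E. coli and refolded, activated with APMA or trypsin; compounds incubated at room temperature with 4 μM fluorogenic substrate I (MCA-PLGL-Dpa-AR-NH2) in Tris/NaCl/CaCl2 buffer, pH 7.5. Fluorescence at ex 328/em 415 nm; IC50 from loss of fluorescence versus inhibitor concentration.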

[4] = biological target: T4, Human recombinant MMP-9 (Homo sapiens, UniProt P14780)
T4 construct: made in house; host or cells: MMP-9-transfected HT1080 cells (spent media)
T4 sequence (P14780 107-707 limits assumed): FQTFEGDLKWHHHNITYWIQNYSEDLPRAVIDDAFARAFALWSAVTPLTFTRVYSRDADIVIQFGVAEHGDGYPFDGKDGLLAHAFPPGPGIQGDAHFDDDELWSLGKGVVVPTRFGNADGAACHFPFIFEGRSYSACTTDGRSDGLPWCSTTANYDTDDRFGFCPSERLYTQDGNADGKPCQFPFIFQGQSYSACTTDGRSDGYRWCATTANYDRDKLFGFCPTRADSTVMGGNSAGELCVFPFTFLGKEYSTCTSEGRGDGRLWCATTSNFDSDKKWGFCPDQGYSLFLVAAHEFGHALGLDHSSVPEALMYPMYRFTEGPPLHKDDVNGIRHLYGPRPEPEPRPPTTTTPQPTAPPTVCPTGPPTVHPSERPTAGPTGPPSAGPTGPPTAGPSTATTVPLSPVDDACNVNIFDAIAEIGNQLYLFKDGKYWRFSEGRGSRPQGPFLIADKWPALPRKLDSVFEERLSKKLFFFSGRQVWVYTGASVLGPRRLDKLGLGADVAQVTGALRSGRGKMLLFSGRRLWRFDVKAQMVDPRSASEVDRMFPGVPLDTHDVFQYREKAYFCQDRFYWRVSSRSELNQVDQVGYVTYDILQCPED
In short: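 MMP-9 proenzyme purified from transfected HT1080 cell media, activated with APMA or trypsin. Compound dilutions in pH 7.5 Tris/NaCl/CaCl2 buffer with 0.05% polyoxyethylene 23 lauryl ether, incubated at room temperature with 4 μM MCA/Dpa substrate I. IC50 from fluorescence loss (ex 328, em 415 nm) versus inhibitor concentration.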

[5] = biological target: T5, Human recombinant MMP-1 (Homo sapiens, UniProt P03956)
T5 construct: made in house; host or cells: MMP-1-transfected HT-1080 cells (spent media)
T5 sequence (P03956 100-469): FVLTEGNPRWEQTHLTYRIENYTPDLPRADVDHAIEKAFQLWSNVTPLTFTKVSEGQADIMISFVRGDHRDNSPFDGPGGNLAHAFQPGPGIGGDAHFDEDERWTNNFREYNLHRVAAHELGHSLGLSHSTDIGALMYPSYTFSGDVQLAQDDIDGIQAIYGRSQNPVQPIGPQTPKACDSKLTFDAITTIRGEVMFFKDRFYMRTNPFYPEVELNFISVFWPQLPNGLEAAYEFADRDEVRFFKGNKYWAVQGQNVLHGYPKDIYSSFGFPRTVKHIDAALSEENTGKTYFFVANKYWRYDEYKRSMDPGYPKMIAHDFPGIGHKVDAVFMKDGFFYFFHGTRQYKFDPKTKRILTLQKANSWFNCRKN
In short: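 APMA- or trypsin-activated enzyme, purified from spent media of transfected HT-1080 cells, incubated at room temperature with 4 μM MCA-Pro-Leu-Gly-Leu-Dpa-Ala-Arg-NH2 and graded inhibitor in Tris buffer pH 7.5 (10 mM CaCl2, 0.05% Brij). Cleavage read by fluorescence (ex 328/em 415 nm); IC50 from fluorescence reduction versus inhibitor concentration.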

[6] = value outside parentheses (Ki in parenthesis)
[7] = substrate (I) 4 μM, room temperature, values not in parenthesis

pIC50 ([1]; value outside parenthesis)	pIC50 ([2]; value outside parenthesis)	pIC50 ([3]; value outside parenthesis)	pIC50 ([4]; value outside parenthesis)	pIC50 ([5]; value outside parenthesis)	Compound	other results
7.10	8.92	< 5.00	5.93	< 5.00	Cc1cccc(-c2noc(CCCOc3ccc(S(=O)(=O)C4(C(=O)NO)CCOCC4)cc3)n2)c1 [Example 238]	
7.31	9.30	< 5.00	5.68	5.03	O=C(NO)C1(S(=O)(=O)c2ccc(OCCCc3nc(-c4ccc(Cl)cc4)no3)cc2)CCOCC1 [Example 243]	
7.58	9.40	< 5.00	6.06	5.02	O=C(NO)C1(S(=O)(=O)c2ccc(OCCCc3nc(-c4cc(F)ccc4F)no3)cc2)CCOCC1 [Example 211]	
7.37	9.15	< 5.00	5.95	< 5.00	COc1ccc(-c2noc(CCCOc3ccc(S(=O)(=O)C4(C(=O)NO)CCOCC4)cc3)n2)cc1 [Example 237]	
6.84	9.22	< 5.00	5.74	< 5.00	Cc1ccc(-c2nnc(CCCOc3ccc(S(=O)(=O)C4(C(=O)NO)CCOCC4)cc3)o2)c(C)c1 [Example 204]	
8.39	9.52	< 5.00	6.67	5.85	O=C(NO)C1(S(=O)(=O)c2ccc(OCCCc3nc(-c4ccc([N+](=O)[O-])cc4)no3)cc2)CCOCC1 [Example 212]	
6.41	8.04	< 5.00	6.69	< 5.00	O=C(NO)C1(S(=O)(=O)c2ccc(OCCCc3nc(-c4cccc(OC(F)(F)F)c4)no3)cc2)CCOCC1 [Example 266]	

Continued, compound first:

Compound	pIC50 ([1]; value outside parenthesis)	pIC50 ([2]; value outside parenthesis)	pIC50 ([3]; value outside parenthesis)	pIC50 ([4]; value outside parenthesis)	pIC50 ([5]; value outside parenthesis)	other results
CC(C)(COc1ccc(S(=O)(=O)C2(C(=O)NO)CCOCC2)cc1)CS(=O)(=O)Cc1ccccc1 [Example 438]						pIC50 [1, 6]: 6.30; pIC50 [2, 6]: 7.96; pIC50 [3, 6]: < 5.00; pIC50 [4, 6]: 5.42; pIC50 [5, 6]: < 5.00
O=C(NCCCOc1ccc(S(=O)(=O)C2(C(=O)NO)CCOCC2)cc1)c1cccnc1 [Example 385]						pIC50 [1, 6]: 6.60; pIC50 [2, 6]: 8.48; pIC50 [3, 6]: < 5.00; pIC50 [4, 6]: < 5.00; pIC50 [5, 6]: 5.36
O=C(NO)C1(S(=O)(=O)c2ccc(OCCOc3ccc4c(c3)OCO4)cc2)CCOCC1 [Example 665]						pIC50 ([1]; value outside parentheses): 7.94; pIC50 ([2]; value outside parentheses): 8.62; pIC50 ([3]; value outside parentheses): 5.67; pIC50 ([4]; value outside parentheses): 7.35; pIC50 ([5]; value outside parentheses): < 5.00
COC(=O)c1ccc(OCCOc2ccc(S(=O)(=O)C3(C(=O)NO)CCOCC3)cc2)cc1 [Example 651]						pIC50 ([1]; value outside parentheses): 7.73; pIC50 ([2]; value outside parentheses): 8.95; pIC50 ([3]; value outside parentheses): 6.19; pIC50 ([4]; value outside parentheses): 6.89; pIC50 ([5]; value outside parentheses): < 5.00
O=C1c2ccccc2C(=O)N1CCCCc1ccc(S(=O)(=O)C2(C(=O)NO)CCOCC2)cc1 [Example 35]						pIC50 [1, 7]: 6.22; pIC50 [2, 7]: 8.52; pIC50 [3, 7]: < 5.00; pIC50 [4, 7]: < 5.00; pIC50 [5, 7]: < 5.00
O=C(NO)C1(S(=O)(=O)c2ccc(OCCc3cccc(-c4ccccc4)c3)cc2)CCOCC1 [Example 99]	6.61	9.40	< 5.00	5.46	< 5.00	
O=C(CCCOc1ccc(S(=O)(=O)C2(C(=O)NO)CCOCC2)cc1)NNC(=O)c1ccc(Cl)cc1 [Example 272]	8.38	8.55	< 5.00	6.82	6.40	
